Test results: patent publication US20110224204A1, “DI-SUBSTITUTED PHENYL COMPOUNDS” (priority 2008, published 2011)

Biological target: Human PDE10A1 (Homo sapiens, UniProt Q9Y233)
Assay: hPDE10A1 Enzyme Inhibition
Type: biochemical
Conditions: [3H]-cAMP substrate; read-out: hPDE10A1 IC50 Band
Protocol: hPDE10A1 Enzyme Activity: 50 μl samples of serially diluted Human PDE10A1 enzyme were incubated with 50 μl of [^3H]-cAMP for 20 minutes (at 37° C.). Reactions were carried out in Greiner 96 deep well 1 ml master-block. The enzyme was diluted in 20 mM Tris HCl pH7.4 and [^3H]-cAMP was diluted in 10 mM MgCl2, 40 mM Tris.HCl pH 7.4. The reaction was terminated by denaturing the PDE enzyme (at 70° C.) after which [^3H]-5′-AMP was converted to [^3H]-adenosine by adding 25 μl snake venom nucleotidase and incubating for 10 minutes (at 37° C.). Adenosine, being neutral, was separated from charged cAMP or AMP by the addition of 200 μl Dowex resin. Samples were shaken for 20 minutes then centrifuged for 3 minutes at 2,500 r.p.m. 50 μl of supernatant was removed and added to 200 μl of MicroScint-20 in white plates (Greiner 96-well Optiplate) and shaken for 30 minutes before reading on Perkin Elmer TopCount Scintillation Counter.
hPDE10A1 Enzyme Inhibition: To check inhibition profile 11 μl of serially diluted inhibitor was added to 50 μl of [^3H]-cAMP and 50 ul of diluted Human PDE10A1 and assay was carried out as in the enzyme activity assay. Data was analysed using Prism software (GraphPad Inc).

Chain of Human PDE10A1 (Q9Y233 1-779 isoform Q9Y233-1): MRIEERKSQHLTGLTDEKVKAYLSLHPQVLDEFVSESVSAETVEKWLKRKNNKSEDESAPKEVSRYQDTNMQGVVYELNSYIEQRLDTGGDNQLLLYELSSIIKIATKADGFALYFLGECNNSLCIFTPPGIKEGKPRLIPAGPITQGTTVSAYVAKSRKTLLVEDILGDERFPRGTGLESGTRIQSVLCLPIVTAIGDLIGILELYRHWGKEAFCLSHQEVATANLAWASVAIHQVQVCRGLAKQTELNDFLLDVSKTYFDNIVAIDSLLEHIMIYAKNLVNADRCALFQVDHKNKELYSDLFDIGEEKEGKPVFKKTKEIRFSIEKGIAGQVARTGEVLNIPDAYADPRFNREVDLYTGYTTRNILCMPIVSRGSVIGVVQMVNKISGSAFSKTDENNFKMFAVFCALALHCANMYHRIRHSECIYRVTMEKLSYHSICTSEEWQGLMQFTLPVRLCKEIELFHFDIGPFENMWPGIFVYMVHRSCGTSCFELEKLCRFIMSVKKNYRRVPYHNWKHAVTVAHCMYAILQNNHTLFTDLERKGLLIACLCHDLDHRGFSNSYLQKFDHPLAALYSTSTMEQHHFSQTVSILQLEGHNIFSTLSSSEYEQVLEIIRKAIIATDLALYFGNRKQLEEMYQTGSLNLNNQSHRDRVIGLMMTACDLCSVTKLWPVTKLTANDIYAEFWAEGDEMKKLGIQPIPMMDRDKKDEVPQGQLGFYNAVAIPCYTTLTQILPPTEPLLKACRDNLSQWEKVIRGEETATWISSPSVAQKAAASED

Row | SMILES | IC50 [nM]
1 | Clc1ccc(-c2ccccc2-c2ccc(OCc3ccc4ccccc4n3)cc2)cc1 [Example 180] | > 50
2 | CCc1ccc(COc2ccc(-c3ccccc3-c3ccncc3)cc2)nc1 [Example 1878, 5-ethyl-2-((2′-(pyridin-4-yl)biphenyl-4-yloxy)methyl)pyridine] | > 50
3 | Cc1cc(-c2ccccc2-c2ccc(OCc3ccc4ccccc4n3)cc2)ccn1 [Example 1859, 2-((2′-(2-methylpyridin-4-yl)biphenyl-4-yloxy)methyl)quinoline] | ≤ 50
4 | Clc1ccc(-c2ccncc2)c(-c2ccc(OCc3ccc4ccccc4n3)cc2)c1 [Example 405, 2-((5′-Chloro-2′-(pyridin-4-yl)biphenyl-4-yloxy)methyl)quinoline] | ≤ 50
5 | Fc1cccc(-c2ccc(OCc3ccc4ccccc4n3)cc2)c1-c1ccncc1 [Example 1946, 2-(3′-Fluoro-2′-pyridin-4-ylbiphenyl-4-yloxymethyl)-quinoline] | > 50
6 | Clc1cccc(-c2ccncc2)c1-c1ccc(OCc2ccc3ccccc3n2)cc1 [Example 382, 2-((2′-Chloro-6′-(pyridin-4-yl)biphenyl-4-yloxy)methyl)quinoline] | ≤ 50
7 | Cc1cnc(COc2ccc(-c3ccccc3-c3ccncc3)cc2)c(C)c1 [Example 1887, 3,5-dimethyl-2-((2′-(pyridin-4-yl)biphenyl-4-yloxy)methyl)pyridine] | ≤ 50
8 | Fc1ccc(N2CCOCC2)c(-c2ccc(OCc3ccc4ccccc4n3)cc2)c1 [Example 469, 4-(5-fluoro-4′-(quinolin-2-ylmethoxy)biphenyl-2-yl)morpholine] | ≤ 50
9 | CN(C)Cc1cccc(-c2ccncc2)c1-c1ccc(OCc2ccc3ccccc3n2)cc1 [Example 1874, N,N-dimethyl-1-(6-(pyridin-4-yl)-4′-(quinolin-2-ylmethoxy)biphenyl-2-yl)methanamine] | > 50
10 | N#Cc1cccc(N2CCOCC2)c1-c1ccc(OCc2ccc3ccccc3n2)cc1 [Example 448, 6-morpholino-4′-(quinolin-2-ylmethoxy)biphenyl-2-carbonitrile] | ≤ 50
11 | COc1cc(-c2ccccc2-c2ccc(OCc3ccc4ccccc4n3)cc2)ccc1Cl [Example 1861] | ≤ 50
12 | N#Cc1cccc(-c2ccc(OCc3ccc4ccccc4n3)cc2)c1-c1ccncc1 [Example 1870, 2-Pyridin-4-yl-4′-(quinolin-2-ylmethoxy)-biphenyl-3-carbonitrile] | > 50
13 | Clc1ccc(-c2ccc(OCc3ccc4ccccc4n3)cc2)c(-c2ccncc2)c1 [Example 1876, 2-((4′-Chloro-2′-(pyridin-4-yl)biphenyl-4-yloxy)methyl)quinoline] | > 50
14 | c1ccc(-c2ccccc2-c2ccc(OCc3ccc4ccccc4n3)cc2)cc1 [Example 1863] | > 50
15 | O=[N+]([O-])c1cccc(-c2ccncc2)c1-c1ccc(OCc2ccc3ccccc3n2)cc1 [Example 384, 2-(2′-Nitro-6′-pyridin-4-yl-biphenyl-4-yloxymethyl)-quinoline] | ≤ 50
16 | COc1ccccc1-c1ccc(OCc2ccc3ccccc3n2)cc1 [Example 1883, 2-((2′-methoxybiphenyl-4-yloxy)methyl)quinoline] | > 50
17 | COc1ccc(-c2ccccc2-c2ccc(OCc3ccc4ccccc4n3)cc2)cc1Cl [Example 1869] | > 50
18 | O=C(c1cccc(-c2ccncc2)c1-c1ccc(OCc2ccc3ccccc3n2)cc1)N1CCOCC1 [Example 1864, morpholino(6-(pyridin-4-yl)-4′-(quinolin-2-ylmethoxy)biphenyl-2-yl)methanone] | > 50
19 | c1ccc(-c2ccoc2)c(-c2ccc(OCc3ccc4ccccc4n3)cc2)c1 [Example 1871, 2-((2′-(furan-3-yl)biphenyl-4-yloxy)methyl)quinoline] | > 50
20 | Cc1ccc(-c2ccc(OCc3ccc4ccccc4n3)cc2)c(-c2ccncc2)c1 [Example 1867, 2-(4′-Methyl-2′-pyridin-4-yl-biphenyl-4-yloxymethyl)-quinoline] | > 50
21 | c1ccc(C2CCCCC2)c(-c2ccc(OCc3ccc4ccccc4n3)cc2)c1 [Example 1877, 2-((2′-cyclohexylbiphenyl-4-yloxy)methyl)quinoline] | > 50
22 | Clc1cccc(-c2ccc(OCc3ccc4ccccc4n3)cc2)c1-c1ccncc1 [Example 1872, 2-((3′-Chloro-2′-(pyridin-4-yl)biphenyl-4-yloxy)methyl)quinoline] | > 50
23 | Fc1cccc(-c2ccncc2)c1-c1ccc(OCc2ccc3ccccc3n2)cc1 [Example 381, 2-(6′-Fluoro-2′-pyridin-4-yl-biphenyl-4-yloxymethyl)-quinoline] | > 50
24 | CCCc1ccccc1-c1ccc(OCc2ccc3ccccc3n2)cc1 [Example 1866, 2-((2′-propylbiphenyl-4-yloxy)methyl)quinoline] | > 50

Row | SMILES | IC50 [nM]
25 | c1cc(-c2ccncc2)c(-c2ccc(OCc3ccc4ccccc4n3)cc2)c(C2OCCCO2)c1 [Example 1857, 2-((2′-(1,3-Dioxan-2-yl)-6′-(pyridin-4-yl)biphenyl-4-yloxy)methyl)quinoline] | ≤ 50
26 | Cc1cccc(-c2ccncc2)c1-c1ccc(OCc2ccc3ccccc3n2)cc1 [Example 387, 2-(6′-Methyl-2′-pyridin-4-yl-biphenyl-4-yloxymethyl)-quinoline] | ≤ 50
27 | Cc1cccc(COc2ccc(-c3ccccc3-c3ccncc3)cc2)n1 [Example 1884, 2-methyl-6-((2′-(pyridin-4-yl)biphenyl-4-yloxy)methyl)pyridine] | > 50
28 | N#Cc1ccc(-c2ccncc2)c(-c2ccc(OCc3ccc4ccccc4n3)cc2)c1 [Example 406, 6-(Pyridin-4-yl)-4′-(quinolin-2-ylmethoxy)biphenyl-3-carbonitrile] | ≤ 50
29 | Fc1ccc(-c2ccc(OCc3ccc4ccccc4n3)cc2)c(-c2ccncc2)c1 [Example 1856, 2-(4′-Fluoro-2′-pyridin-4-yl-biphenyl-4-yloxymethyl)-quinoline] | ≤ 50
30 | N#Cc1ccc(-c2ccccc2-c2ccc(OCc3ccc4ccccc4n3)cc2)cc1 [Example 255] | ≤ 50
31 | c1cc(-c2ccncc2)c(-c2ccc(OCc3ccc4ccccc4n3)cc2)c(N2CCOCC2)c1 [Example 1873, 4-(6-(pyridin-4-yl)-4′-(quinolin-2-ylmethoxy)biphenyl-2-yl)morpholine] | > 50
32 | N#Cc1cccc(-c2ccncc2)c1-c1ccc(OCc2ccc3ccccc3n2)cc1 [Example 383, 6-Pyridin-4-yl-4′-(quinolin-2-ylmethoxy)-biphenyl-2-carbonitrile] | ≤ 50
33 | COc1ccc(-c2ccccc2-c2ccc(OCc3ccc4ccccc4n3)cc2)cc1C(F)(F)F [Example 1860] | ≤ 50
34 | Cc1ccccc1-c1ccc(OCc2ccc3ccccc3n2)cc1 [Example 444, 2-((2′-methylbiphenyl-4-yloxy)methyl)quinoline] | > 50
35 | Cc1cccc(-c2ccc(OCc3ccc4ccccc4n3)cc2)c1-c1ccncc1 [Example 1886, 2-(3′-Methyl-2′-pyridin-4-yl-biphenyl-4-yloxymethyl)-quinoline] | > 50
36 | c1ccc(N2CCOCC2)c(-c2ccc(OCc3ccc4ccccc4n3)cc2)c1 [Example 445, 4-(4′-(quinolin-2-ylmethoxy)biphenyl-2-yl)morpholine] | > 50
37 | O=Cc1cccc(-c2ccncc2)c1-c1ccc(OCc2ccc3ccccc3n2)cc1 [Example 1854, 6-(Pyridin-4-yl)-4′-(quinolin-2-ylmethoxy)biphenyl-2-carbaldehyde] | ≤ 50
38 | CCc1ccccc1-c1ccc(OCc2ccc3ccccc3n2)cc1 [Example 1875, 2-((2′-ethylbiphenyl-4-yloxy)methyl)quinoline] | > 50
39 | c1ccc(-c2ccc(OCc3ccc4ccccc4n3)cc2)c(-c2ccncc2)c1 [Example 380, 2-((2′-(Pyridin-4-yl)biphenyl-4-yloxy)methyl)quinoline] | ≤ 50
40 | COc1ccc(-c2ccccc2-c2ccc(OCc3ccc4ccccc4n3)cc2)cc1 [Example 330] | > 50
41 | CS(=O)(=O)c1cccc(-c2ccncc2)c1-c1ccc(OCc2ccc3ccccc3n2)cc1 [Example 392, 2-((2′-(methylsulfonyl)-6′-(pyridin-4-yl)biphenyl-4-yloxy)methyl)quinoline] | ≤ 50
42 | Cc1ccc(-c2ccncc2)c(-c2ccc(OCc3ccc4ccccc4n3)cc2)c1 [Example 408, 2-(5′-Methyl-2′-pyridin-4-yl-biphenyl-4-yloxymethyl)-quinoline] | ≤ 50
43 | Cc1cc(-c2ccncc2)c(-c2ccc(OCc3ccc4ccccc4n3)cc2)cc1C [Example 1880, 2-((4′,5′-dimethyl-2′-(pyridin-4-yl)biphenyl-4-yloxy)methyl)quinoline] | > 50
44 | COc1cc(-c2ccccc2-c2ccc(OCc3ccc4ccccc4n3)cc2)ccc1C#N [Example 205] | ≤ 50
45 | COc1cccc(-c2ccncc2)c1-c1ccc(OCc2ccc3ccccc3n2)cc1 [Example 385, 2-((2′-Methoxy-6′-(pyridin-4-yl)biphenyl-4-yloxy)methyl)quinoline] | ≤ 50
46 | Fc1ccc(-c2ccncc2)c(-c2ccc(OCc3ccc4ccccc4n3)cc2)c1 [Example 404, 2-((5′-fluoro-2′-(pyridin-4-yl)biphenyl-4-yloxy)methyl)quinoline] | ≤ 50
47 | N#Cc1cc(-c2ccccc2-c2ccc(OCc3ccc4ccccc4n3)cc2)ccc1Cl [Example 1855] | ≤ 50
